Laboratory results taken from the METLIN SMRT retention time set (Domingo-Almenara et al. 2019).

Assay: gradient 5% acetonitrile 3 min, to 50% in 2 min, to 85% in 15 min, held 3 min, 100 µL/min
Conditions: column: Zorbax Extend-C18 2.1 x 50 mm; eluents: water / acetonitrile, 0.1% formic acid
Summary of the method: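 The mobile phases were water and acetonitrile, each with 0.1% formic acid, pumped at 100 μL/min through a Zorbax Extend-C18 column (2.1 × 50 mm, 1.8 μm). Pure standards were injected as mixtures of ~100 molecules and detected by a quadrupole time-of-flight mass spectrometer in positive and negative ionization mode. Retention time came from computationally picked adduct peaks, each inspected by hand.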

| SMILES | RP-LC retention time |
| --- | --- |
| COCCNCc1c(C(=O)O)c(C)n(Cc2cccc(Cl)c2)c1C | 679 s |
| COc1ccc2c(c1)C1(CCN(C(=O)c3cccc(C)c3)C1)C(=O)N2C (centres undefined) | 823 s |
| Cc1ccccc1NC(=O)NC1CCN(c2ccccc2)C1=O (centres undefined) | 781 s |
| O=C(NCC1CCOCC1)c1ccc2ccccc2n1 | 782 s |
| Cc1ccc(Nc2nc(-c3ccncc3)nc3ccccc23)cc1 | 797 s |
| CN(C)CCNC(=O)COc1ccccc1-c1nnc(-c2ccccc2)o1 | 659 s |
| Cc1cc(C)cc(NC(=O)Cn2ccc3sccc3c2=O)c1 | 820 s |
| Cc1nc(-c2ccc3c(c2)CCN3C(=O)COc2ccc(Cl)cc2)cs1 | 1080 s |
| COCc1nc2c(N)cccn2n1 | 569 s |
| COc1ccc(Cl)cc1S(=O)(=O)N1CCCC(C(=O)Nc2ccccc2)C1 (centres undefined) | 967 s |
| COc1ccc(Cl)cc1NC(=O)NCC(=O)N1CCc2ccccc21 | 930 s |
| Cc1ccc(Oc2nccnc2SCC(=O)Nc2cc(C)cc(C)c2)cc1 | 1200 s |
| Cc1nnc(-c2cc(C)n(CC(=O)Nc3cccc(C)c3C)c2C)o1 | 767 s |
| Cc1c(C(=O)NC2CC2)cc(-c2ccccc2)n1C | 605 s |
| CCOc1ccc(-c2[nH]ncc2CNS(=O)(=O)Cc2ccc(Cl)cc2)cc1 | 861 s |
| Cc1ccc(NC(=O)N2CCc3nc[nH]c3C2)cc1Cl | 612 s |
| Cc1ccc(N2CC(c3noc(-c4ccccc4C)n3)CC2=O)cc1 (centres undefined) | 1090 s |
| Cc1ccc(-n2ccc(=O)c(-c3nc(-c4ccc(F)c(Br)c4)no3)n2)cc1C | 1120 s |
| CC(C)CCNC(=O)C1(C)CN(S(=O)(=O)c2ccccc2)CC(=O)N1c1ccc(F)cc1F (centres undefined) | 972 s |
| O=C(c1ccncc1)N1CCC2(CC1)N=C(c1ccc(Cl)cc1)NO2 | 625 s |
| COc1ccc(CNC(=O)N2CC=C(c3cn(C)c4ncccc34)CC2)cc1 | 752 s |
| CCOC(=O)N1CCN(S(=O)(=O)CCNC(=O)c2ccccc2)CC1 | 669 s |
| Cc1c(Cl)cccc1NC(=O)Cn1c(=O)n(-c2ccc(F)cc2)c(=O)c2c1cc(C)n2C | 880 s |
| COc1ccc2c(c1)-c1nc(NC(=O)c3ccccc3Br)sc1CC2 | 1140 s |

| SMILES | RP-LC retention time |
| --- | --- |
| O=C(NCC(O)Cc1ccccc1)c1c(F)cccc1F (centres undefined) | 678 s |
| CC(C)n1cnc2cc(CNC(=O)Cc3cccc(C(F)(F)F)c3)ccc21 | 680 s |
| CC(C)(C)c1ccc(C(=O)N2CCc3nc[nH]c3C2)cc1 | 634 s |
| CCOCCCNC(=O)C1=NN(c2ccc(F)cc2)c2ccc(F)cc2S1(=O)=O | 885 s |
| CCn1nccc1-c1cccc(-c2noc(-c3ccc(F)cc3F)n2)c1 | 1270 s |
| COc1ccc(Cl)cc1S(=O)(=O)N1CCc2c(c(-c3nnc(-c4ccccc4)o3)nn2C)C1 | 958 s |
| COc1ccc2c(c1)C1(CCN(C(=O)Nc3ccccc3OC)C1)C(=O)N2 (centres undefined) | 722 s |
| COCC(=O)Nc1ccc2c(c1)N(C(=O)c1cccs1)CCC2 | 758 s |
| CN1C(C)(C)CCCC1(C)C | 614 s |
| CCc1nn2c(CNC(=O)c3ccc(C)cc3)c(-c3ccccc3)nc2s1 | 950 s |
| O=C(Nc1ccc(F)cc1F)N1CCC(n2cnc3cc(Cl)ccc3c2=O)CC1 | 806 s |
| Cc1cc(C)cc(OCCNS(=O)(=O)c2ccc3c(c2)OCCO3)c1 | 934 s |
| COc1ccc(CC(=O)Nc2ccc(-c3nc(Cn4cccn4)c(C)o3)cc2)cc1 | 838 s |
| Cn1ncc2c(Nc3ccccc3Cl)nc(Cl)nc21 | 891 s |
| CC1(C)CC(=O)c2cn(-c3ccccc3)c(=O)c(C(=O)Nc3cc(F)ccc3F)c2C1 | 1030 s |
| CC1(C)CC[C@]2(C(=O)n3ccnc3)CC[C@]3(C)[C@H](C(=O)C=C4[C@@]5(C)C=C(C#N)C(=O)C(C)(C)[C@@H]5CC[C@]43C)[C@@H]2C1 | 1260 s |
| COc1ccc(-c2cn3ccn(-c4ccc(OC)cc4)c(=O)c3n2)cc1 | 768 s |
| Cn1nc(CNC(=O)c2ccsc2)c2ccccc21 | 735 s |
| Cc1cccc(Cn2c(=O)n(C)c(=O)c3snc(-c4ccccn4)c32)c1 | 925 s |
| COC(=O)c1ccc2c(=O)n(Cc3ccc(F)cc3)c(N3CCSC3)nc2c1 | 1090 s |
| C=CCNC(=O)c1nnn(Cc2ccc(Cl)cc2)c1-n1cccc1 | 954 s |
| CCc1ccc2c(c1)cc(S(=O)(=O)c1ccccc1)c(=O)n2CC(=O)NCc1ccc(F)cc1 | 971 s |
| Cn1nc(-c2nnc(-c3ccc(F)cc3)o2)c2c1CCN(S(=O)(=O)c1ccc(Cl)cc1)C2 | 1020 s |

Second part, the compound after the results:

| RP-LC retention time | SMILES |
| --- | --- |
| 750 s | CC(C)CC(=O)NCCn1c(=O)n(Cc2ccc(F)cc2)c2cccnc21 |
| 620 s | Cc1ccc(-c2nccn3cc(C(=O)N4CCN(C(C)C)CC4)nc23)cc1 |
| 930 s | O=C(NCC1CCCCC1)c1ccc(NC(=O)C2CCC2)cc1N1CCOCC1 |
| 771 s | COc1ccc(N2CCN(c3nccc4ccc(C(=O)NC5CCCCC5)cc34)CC2)cc1 |
| 1060 s | CCc1nc(-c2csc(S(=O)(=O)N3CCCC(C(=O)Nc4ccc(F)cc4F)C3)c2)no1 (centres undefined) |
| 805 s | COc1ccc(-c2csc(CN3CCN(C(=O)c4c(F)cccc4Cl)CC3)n2)cc1 |
| 641 s | Cc1cc(=O)n(CC(=O)Nc2cc(F)ccc2F)c(N2CCCC2)n1 |
| 839 s | Cc1ccc2[nH]cc(CCN3CC(C(=O)N4CCN(c5ccccc5)CC4)CC3=O)c2c1 (centres undefined) |
| 1020 s | O=C(C1CCN(S(=O)(=O)c2cc(-c3noc(C4CC4)n3)cs2)CC1)N1CCc2ccccc2C1 |
| 683 s | CCOc1ccc(-n2ccn3c(CC(C)CC(=O)NCC(C)C)nnc3c2=O)cc1 (centres undefined) |
| 697 s | Cc1ccc(N2CCN(C(=O)C3=CCN(Cc4cccc(C)c4)CC3)CC2)cc1 |
| 886 s | O=C(c1cn(-c2cc(N3CCSCC3)ncn2)cn1)N1CCc2ccccc2C1 |
| 988 s | CCS(=O)(=O)c1ccc2c(c1)N(Cc1nc(-c3cccc(Br)c3)no1)C(=O)CO2 |
| 1110 s | CCCN1C(=O)COc2ccc(-c3noc(CCc4c[nH]c5ccccc45)n3)cc21 |
| 651 s | Cc1ccc(C(=O)N2CCN(c3nc(CN4CCOCC4)cs3)CC2)cc1 |
| 608 s | Cc1cc(N2CCN(C(=O)c3ccccc3F)CC2)nc(N2CCOCC2)n1 |
| 889 s | Cc1ccc(-c2ccc(N3CCCC(C(=O)NCc4ccc(C(C)C)cc4)C3)nn2)cc1 (centres undefined) |
| 859 s | CCc1ccc(NC(=O)C2CCCN2S(=O)(=O)c2ccc3c(c2)NC(=O)CO3)cc1 (centres undefined) |
| 895 s | CCCc1nc(-c2c(C)cc(C)nc2NC(=O)c2ccc(F)cc2F)no1 |
| 792 s | O=C(c1ccc(-c2ccsc2)nc1)N1CCCCC1 |
| 675 s | CCOC(=O)c1c(C)[nH]c(C(=O)N2CCC(CC(=O)N3CCOCC3)CC2)c1C |

| RP-LC retention time | SMILES |
| --- | --- |
| 880 s | CCCn1cc(C(=O)NC(C)CC)c2nn(-c3ccccc3)c(=O)c-2c1 (centres undefined) |
| 645 s | COc1ccc(Nc2nc(N3CCN(C)CC3)nc3c2C(=O)CCC3)cc1 |
| 705 s | O=c1c2cc(-c3ccccc3)nn2ccn1Cc1noc(CN2CCCCCCC2)n1 |
| 808 s | Cc1ccc(C(=O)Nc2nccnc2C(=O)NCC2CCCO2)cc1 (centres undefined) |
| 937 s | O=C(Nc1ccccc1Br)N[C@@H]1CCN(c2ccc(C(F)(F)F)cn2)C1 |
| 830 s | CCn1cnc(S(=O)(=O)N2CCCC(C(=O)Nc3ccc(F)c(Cl)c3)C2)c1 (centres undefined) |
| 690 s | CS(=O)(=O)N1CCCC(C(=O)NCCC2=CCCCC2)CCNC(=O)CC1 (centres undefined) |
| 950 s | Cc1ccc(NC(=O)Cn2nc(C(=O)N3CCCC3)c3ccccc32)cc1Cl |
| 605 s | O=C(NCCN1CCN(C(=O)NC(c2ccccc2)c2ccccc2)CC1)c1ccsc1 |
| 860 s | CCOc1ccc(OCC)c(NC(=O)CSc2cc(N3CCC(C(=O)NC4CC4)CC3)ncn2)c1 |
| 563 s | C[C@@]1(O)CCN(Cc2cccc(F)c2F)C[C@H]1N1CCCC1 |
| 652 s | COc1ccc(NC(=O)NC2CCN(C(=O)N3C[C@H]4C[C@H](C3)[C@H]3CCCC(=O)N3C4)CC2)cc1 |
| 705 s | Cn1c(=O)n(C)c2cc(N3CCOCC3)c(NC(=O)NCc3cccc(F)c3)cc21 |
| 930 s | Cc1ccc(CN2C(=O)CN(S(C)(=O)=O)CC2(C)C(=O)NC2CCCCCCC2)cc1 (centres undefined) |
| 1050 s | N#Cc1cccc(C(=O)N2CCCC2c2nc(-c3cccc(C(F)(F)F)c3)no2)c1 (centres undefined) |
| 711 s | CNC(=O)C1CCCN(c2nc3ncn(CC(=O)Nc4cccc(C(C)C)c4)c(=O)c3s2)C1 (centres undefined) |
| 619 s | O=C(NCc1cccnc1)C1CN(C(=O)c2cccs2)CC12CCCCC2 (centres undefined) |
| 731 s | COc1ccc(NS(=O)(=O)c2cc(-c3[nH]ncc3C(=O)N3CCCCC3)oc2C)cc1 |
| 626 s | CCCCn1c(CN2CCCC2)nc2cc(NC(=O)c3ccco3)ccc21 |
| 1190 s | CC1Oc2ccccc2N(Cc2nc(-c3ccc(Cl)c(F)c3)no2)C1=O (centres undefined) |
| 635 s | CC1CCCN(c2ccc(-c3noc(CN4CCN(CC(=O)NC(C)C)CC4)n3)cn2)C1 (centres undefined) |
